Source: patent publication EP0745595A1, “3-(3-Aryloxyphenyl)-1-(substituted methyl)-s-triazine-2,4,6-oxo or thiotrione herbicidal agents” (American Cyanamid Company, priority 1995, dated 1996)

Experiments:
Assay type in all cases: in vivo
[1] = system: ECHINOCHLOA ORYZOIDES (ARD.)FRITSCH; assay: Preemergence weed control under flooded paddy conditions, ECHORC (Watergrass (Calif.)); settings: preemergence, 3-4 weeks after treatment
Method in brief: (§1)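 Visual 0-9 score (stand, vigor, malformation, size, chlorosis, appearance vs untreated control) taken 3-4 wk after treatment. Test compounds were added into flood water (1.5-3 cm over silt loam) as 50/50 v/v aqueous/acetone, equivalent to about 0.5-0.063 kg/ha a.i.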

[2] = system: ZEA MAYS L.; assay: Preemergence herbicidal evaluation, ZEAMX (Corn, Field); settings: rated four to five weeks after treatment
Method in brief: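 Preemergence herbicidal activity on field corn: seeds in potting soil were sown atop roughly one inch of soil in separate pint cups, treated, and grown under standard greenhouse care. Four to five weeks post-treatment, stand, vigor, malformation, size, chlorosis and overall appearance were compared with a control and scored 0-9.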

[3] = system: CYPERUS SEROTINUS, ROTTB.; assay: Preemergence weed control under flooded paddy conditions, CYPSE (Flatsedge); settings: preemergence, 3-4 weeks after treatment
Method in brief: as §1

[4] = system: SAGITTARIA PYGMAEA, L.; assay: Preemergence weed control under flooded paddy conditions, SAGPY (Arrowhead (Pygmaea)); settings: preemergence, 3-4 weeks after treatment
Method in brief: as §1

[5] = system: CASSIA OBTUSIFOLIA, L.; assay: Preemergence herbicidal evaluation, CASOB (Sicklepod); settings: rated four to five weeks after treatment
Method in brief: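 Preemergence herbicidal activity against sicklepod was assessed by planting seed mixed with potting soil atop about one inch of soil in pint cups. After treatment the cups were watered and handled per standard greenhouse practice. Tests ended four to five weeks later, with plant stand, vigor, malformation, size, chlorosis and overall appearance scored 0-9 relative to a control.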

[6] = system: IPOMOEA SPP.; assay: Preemergence herbicidal evaluation, IPOSS (Morningglory spp.); settings: rated four to five weeks after treatment
Method in brief: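 This preemergence greenhouse test scored herbicidal effect on morningglory planted in pint cups, with seed mixed into potting soil and placed over about one inch of soil. After treatment the cups were watered and kept under conventional care. At four to five weeks, plant stand, vigor, malformation, size, chlorosis and overall appearance were compared with a control and rated 0-9.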

[7] = system: ECHINOCHLOA CRUS-GALLI, (L) BEAU; assay: Preemergence herbicidal evaluation, ECHCG (Barnyardgrass); settings: rated four to five weeks after treatment
Method in brief: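 In this preemergence herbicide test, cups holding seeds of ECHCG sown in potting soil over roughly one inch of soil were treated and then grown under conventional greenhouse care. Tests were ended four to five weeks after treatment, and injury was scored 0-9 from stand, vigor, malformation, size, chlorosis and overall appearance relative to a control.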

[8] = system: CHENOPODIUM ALBUM, L.; assay: Preemergence herbicidal evaluation, CHEAL (Lambsquarters, Common); settings: rated four to five weeks after treatment
Method in brief: (§2)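 Seeds mixed with potting soil were planted on about one inch of soil in cups, then sprayed with aqueous acetone solution of test compound at about 0.125 to 0.50 kg per hectare. Plants grown under greenhouse conditions; visual rating on a 0-9 scale versus untreated control at 4-5 weeks.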

[9] = system: SETARIA VIRIDIS, (L) BEAU; assay: Preemergence herbicidal evaluation, SETVI (Foxtail, Green); settings: rated four to five weeks after treatment
From the text: (§3) Results of herbicide evaluation are expressed on a rating scale (0-9). The scale is based upon a visual observation of plant stand, vigor, malformation, size, chlorosis and overall plant appearance as compared with a control.
(§4) The preemergence herbicidal activity of the test compounds of the present invention is exemplified by the following tests in which the seeds of a variety of monocotyledonous and dicotyledonous plants are separately mixed with potting soil and planted on top of approximately one inch of soil in separate pint cups. […] The treated cups are then placed on greenhouse benches, watered and cared for in accordance with conventional greenhouse procedures. From four to five weeks after treatment, the tests are terminated and each cup is examined and rated according to the rating system provided in Example 40.
(§5) The compounds evaluated are reported by compound number given in Example 40.

[10] = system: ORYZA SATIVA, L. TEBONNET; assay: Preemergence herbicidal evaluation, ORYSAT (Rice, Tebonnet); settings: rated four to five weeks after treatment
From the text: as §3, §4, §5

[11] = system: ORYZA SATIVA, L. TEBONNET; assay: Rice tolerance to post-transplant applications under flooded paddy conditions, ORYSAT (Rice, Tebonnet); settings: post-transplant rice, 3-4 weeks after treatment
Method in brief: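 Visual 0-9 rating against untreated control (stand, vigor, malformation, size, chlorosis, overall appearance), taken 3-4 weeks after treatment. Flooded silt loam, water at 1.5-3 cm; two 10-day-old seedlings per pot; compound applied to flooded soil surface 3 days post-transplant at ~0.5-0.063 kg/ha.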

[12] = system: GLYCINE MAX(L) MERR. CV. WILLIAMS; assay: Preemergence herbicidal evaluation, GLXMAW (Soybean, Williams); settings: rated four to five weeks after treatment
Method in brief: as §2

COC(=O)Cn1c(=O)[nH]c(=O)n(-c2cc(Oc3ccc(Cl)cc3Cl)ccc2[N+](=O)[O-])c1=O [Compound 14, Methyl 3-[5-(2,4-dichlorophenoxy)-2-nitrophenyl]tetrahydro-2,4,6-trioxo-s-triazine-1(2H)-acetate]
Herbicidal effect rating, ECHORC ([1]; 0.063 kg/ha): 0.0
Herbicidal effect rating, ECHORC ([1]; 0.125 kg/ha): 0.0
Herbicidal effect rating, ECHORC ([1]; 0.250 kg/ha): 0.0
Herbicidal effect rating, ECHORC ([1]; 0.500 kg/ha): 0.0
ZEAMX herbicidal rating ([2]; Rate 0.125 kg/ha): 0.0
ZEAMX herbicidal rating ([2]; Rate 0.250 kg/ha): 0.0
ZEAMX herbicidal rating ([2]; Rate 0.500 kg/ha): 0.0
Herbicidal effect rating, CYPSE ([3]; 0.063 kg/ha): 0.0
Herbicidal effect rating, CYPSE ([3]; 0.125 kg/ha): 0.0
Herbicidal effect rating, CYPSE ([3]; 0.250 kg/ha): 0.0
Herbicidal effect rating, CYPSE ([3]; 0.500 kg/ha): 0.0
Herbicidal effect rating, SAGPY ([4]; 0.063 kg/ha): 0.0
Herbicidal effect rating, SAGPY ([4]; 0.125 kg/ha): 0.0
Herbicidal effect rating, SAGPY ([4]; 0.250 kg/ha): 0.0
Herbicidal effect rating, SAGPY ([4]; 0.500 kg/ha): 0.0
CASOB herbicidal rating ([5]; Rate 0.125 kg/ha): 0.0
CASOB herbicidal rating ([5]; Rate 0.250 kg/ha): 0.0
CASOB herbicidal rating ([5]; Rate 0.500 kg/ha): 0.0
IPOSS herbicidal rating ([6]; Rate 0.125 kg/ha): 0.0
IPOSS herbicidal rating ([6]; Rate 0.250 kg/ha): 0.0
IPOSS herbicidal rating ([6]; Rate 0.500 kg/ha): 0.0
ECHCG herbicidal rating ([7]; Rate 0.125 kg/ha): 0.0
ECHCG herbicidal rating ([7]; Rate 0.250 kg/ha): 0.0
ECHCG herbicidal rating ([7]; Rate 0.500 kg/ha): 0.0
CHEAL herbicidal rating ([8]; Rate 0.125 kg/ha): 9.0
CHEAL herbicidal rating ([8]; Rate 0.250 kg/ha): 9.0
CHEAL herbicidal rating ([8]; Rate 0.500 kg/ha): 9.0
SETVI herbicidal rating ([9]; Rate 0.125 kg/ha): 0.0
SETVI herbicidal rating ([9]; Rate 0.250 kg/ha): 0.0
SETVI herbicidal rating ([9]; Rate 0.500 kg/ha): 0.0
ORYSAT herbicidal rating ([10]; Rate 0.125 kg/ha): 1.0
ORYSAT herbicidal rating ([10]; Rate 0.250 kg/ha): 1.0
ORYSAT herbicidal rating ([10]; Rate 0.500 kg/ha): 1.0
Herbicidal effect rating, ORYSAT ([11]; 0.063 kg/ha): 0.0
Herbicidal effect rating, ORYSAT ([11]; 0.125 kg/ha): 0.0
Herbicidal effect rating, ORYSAT ([11]; 0.250 kg/ha): 0.0
Herbicidal effect rating, ORYSAT ([11]; 0.500 kg/ha): 0.0
GLXMAW herbicidal rating ([12]; Rate 0.125 kg/ha): 0.0
GLXMAW herbicidal rating ([12]; Rate 0.250 kg/ha): 0.0
GLXMAW herbicidal rating ([12]; Rate 0.500 kg/ha): 0.0
